In patent US20070269892A1, “FORMULATIONS FOR INTRACELLULAR DELIVERY dsRNA” (NASTECH PHARMACEUTICAL COMPANY INC., priority 2006, published 2007):
PEG10k = poly(ethylene glycol) of 10 kD conjugated to the peptide; PEG2k = PEG 2k (PEG2k-maleimide); Mal = maleimide

Legend:
9L/LacZ cells [1] = assay: Cellular uptake of peptide/siRNA condensates (fluorescence intensity); format: cell-based; details: study 2; NT peptides at 100 nM, N/P=2 with pluronic F127; PN0593/PN0594 at varying N/P
Description: Cells are plated per well in 24-well plates the day before transfection in complete media. The siRNA is labeled, for example with Cy-5 conjugate. The peptide/siRNA condensates are added to cells previously washed with phosphate buffered saline (PBS). Cells were transfected for three hours at 37° C., 5% CO2. Cells were washed with PBS, treated with trypsin, and then analyzed by flow cytometry.
siRNA cell-uptake was measured by the intensity of intracellular Cy5 fluorescence. The cell-uptake assay is used to determine the percentage of cells that contain the Cy5-conjugated siRNA. Mean Fluorescence Intensity (MFI) is used to determine the relative mean quantity of Cy5-conjugated siRNA that entered the cells.

G1498 siRNA = assay: SYBR-gold dye displacement assay of peptide binding to siRNA, with Scatchard analysis; details: for Bmax (Scatchard Analysis) / Kd (Scatchard Analysis) / Max Bound siRNA: siRNA 10 μg/mL; for Max Bound siRNA: peptide:siRNA charge ratio 0.05 to 10; for Relative affinity of binding to siRNA: comparison within Table 7
Description: Peptides (see Table 4, Example 2) are suspended in Hyclone nuclease free water. Test dilutions of this peptide stock are made in sterile, Nuclease-free eppendorf tubes at a 2× final concentration and buffered to pH 7.4 with 20 mM Phosphate. Nine concentrations of each peptide were made, corresponding to charge ratios of approximately 0.05 to 10. The molar ratios and μg/mL and μM concentrations of each peptide corresponding to these charge ratios are detailed in Tables 1, 2 and 3.
SYBR-gold nucleic acid binding dye stock, a 10,000× concentrate, is supplied by Invitrogen (Carlsbad, Calif.) and stored at −20° C. The concentrate is allowed to equilibrate to room temperature before diluting 1 to 100 in Hyclone nuclease free water. This is then diluted 1 to 10 in the experimental plate for a final concentrate of 10× for the assay. This is the optimal dilution to achieve linear binding to siRNA duplex at a concentration range of up to 50 μg/mL concentration. For higher concentrations, the amount of dye to use may be further optimized.
Samples are mixed directly in the 384 well analysis plate. First 5 μL SYBR-gold dye is pipetted into each well with a multichannel pipette, touching the tip to the bottom of the well to draw out the solution completely. Then 22.5 μL of 2× peptide solution is added with a single channel pipette. Since SYBR-gold will not bind to peptide (and peptide samples without siRNA will verify this assumption), there will be no bleaching effect on fluorescence. Finally, 22.5 μL of 2× siRNA is added with a multichannel pipette. The plate is covered immediately with foil and tapped gently to mix and draw down any droplets on the side of the well.
Fluorescence is measured using the SpectraMax fluorescent plate reader from Molecular Devices (Sunnyvale, Calif.). Plate settings include shaking before reading, one read per well, with excitation wavelength of 495 nm and emission wavelength of 537 nm. The plate is read within 30 minutes of the addition of the siRNA.
Scatchard Plot is a plot of peptide binding ([peptide]bound/[peptide]free) vs. [peptide]bound. The slope of the linear regression of this plot is −1/Kd and Bmax is the […]. Since the concentration of free and bound peptide cannot be measured directly, indirect measurements of siRNA is used for the calculation. Free siRNA is determined from measured fluorescence using the standard curve. Bound siRNA is determined from the standard curve by mass balance from the known initial siRNA concentration (10 μg/mL). Bound peptide is calculated from bound siRNA by assuming the (siRNA:Peptide) bound molar ratio is equal to the (siRNA:Peptide) charge ratio for a single molecule pairing. From this calculated bound peptide amount, the free peptide is calculated by mass balance.
The relative binding of various peptides to siRNA via a rapid screen is assessed by indirect measurement of the displacement of SYBR-gold nucleic acid binding dye. A buffered mixture of siRNA, peptide and SYBR-gold is prepared in the measurement plate in duplicate such that the peptide and SYBR-gold dye undergoes simultaneous competitive binding of the siRNA. The concentration of siRNA is fixed at 10 μg/mL and is combined with a titration of each peptide ranging in a concentration that corresponds to a peptide:siRNA charge ratio between 0.05 to 10. Since SYBR-gold dye only fluoresces when bound to siRNA, peptide binding to the siRNA is inhibits binding of the dye and consequently reduces the fluorescence. Therefore, the amount of fluorescence correlates inversely to the binding of the peptide to the siRNA.

[2] = Particle size analysis of siRNA/peptide polymer formulations; format: physicochemical; details: 24 hours after formulation, siRNA 0.8 μM/peptide polymers, N/P=2
Description: Formulations for particle size analysis were prepared in Hepes 11 mM pH7.4, at a siRNA concentration of 0.8 uM (11.59 μg/ml) and then diluted into OPTI-MEM. For nanoparticle size analysis of siRNA/peptide polymers, we used 1 ug RNA/0.8 nmols peptide polymer (based on monomer). The total vol of sample was 1 ml containing 50 ug RNA and 40 nmol peptide polymer in Hepes buffer mannitol (5 mM HEPES, 5% mannitol, pH 7.5) (Filter). The particle size analysis was performed on a Zeta Plus/Zeta potential analyzer.
Briefly, buffer was added first and then concentrated siRNA was added followed by votexing for 3 seconds (at full speed). The peptide polymer was then added followed by votexing for an additional 6 seconds (at full speed). Formulations were maintained at room temperature for 10 minutes. In a 96-well plate format, formulations were then diluted 20× for a final siRNA concentration of 10 nM (6.25 μl into 118.75 μl of OPTI-MEM) or 2× for a final concentration of 100 nM (62.5 μl of formulation into 62.5 μl OPTI-MEM). After dilution, formulations were mixed gently. For positive control preparation, 0.5 μl of HiPerFect was diluted into 12.5 μl of OPTI-MEM and 0.5 μl of siRNA into 12.5 μl of OPTI-MEM, respectively; and incubated at room temperature for 5 minutes, and then combined diluted siRNA and diluted HiPerFect, and incubated at room temperature for 15 minutes. A formulation pH of about 7.4 was chosen in order to minimize reduction of peptide that is polymerized through cycteine disulfide bonds.
Particle size was measured 24 hours after formulation of siRNA 0.8 μM/peptide polymers (N/P=2). […] In summary, all formulation tested in this study formed particles at about or less than about 100 nm.

[3] = Glutathione (GSH) mediated siRNA release from disulfide cross-linked peptide siRNA particles; format: physicochemical; details: 5 ug siRNA/4 nmols peptide polymer, GSH 0.5 mg
Description: In a separate experiment, glutathione (GSH) was added to disulfide cross-linked peptide siRNA particles (which may be referred to as nanoparticles) in order to detect siRNA release from disulfide cross-linked peptide siRNA condensates. The reduction of the peptide polymers, leading to dissociation and release of siRNA was monitored by continues measurement of the fluorescence intensity of […] over 15 minutes. Briefly, siRNA nanoparticles (N/P: 5 ug siRNA/4 nmols peptide polymer) were treated with reducing agent glutathione (GSH, 0.5 mg scale) and thiazole orange (0.1 ug) in 1 ml sample in HBM buffer pH 7.5. The fluorescence intensity was monitored over 15 min at Ex 498 nm and Emi 546 nm. Samples tested were (1) siRNA and Thiazole orange (No peptide polymer, No GSH), (2) Peptide polymer, siRNA and Thiazole orange (No GSH), and (3) Peptide polymer, siRNA, Thiazole orange and GSH.

9L/LacZ cells [4] = assay: Micro BCA total protein assay (toxicity); format: cell-based; details: study 1, 100 nM, N/P=2
Description: For study 1 and 2, 7,000-10,000 9L/LacZ cells (passage 5-25) were plated in cell culture media in each well of a 96-well plate and grown overnight. Cells (in 75 μl of media) were transfected by adding 25 μl of each formulation to be tested; 4 hours thereafter 100 μl of fresh media is added to each well, which media is replaced with 100 μl of fresh media approximately 16 hours later. […] Cells were harvested 3 days after transfection by the addition of 50 μl of lysis buffer for β-galactosidase and Micro BCA assays.
For study 1 and 2, a Micro BCA assay (Pierce Chemical Company, Rockford, Ill.) was performed in order to measure total protein concentration, as follows: 9L/LacZ cells were washed 1× with phosphate buffered saline (PBS). Then, 50 μl of M-PER® Reagent was added to each well and incubated for 15 minutes at room temperature. After incubation, 10 μl of each lysate was transferred to a new well (using a 96-well plate format) containing 140 μl of dH20, and then 150 μl of Micro BCA working solution was added. The plates were covered, incubated at 37° C. for 2 hours and then the absorbance measured at 562 nm was recorded.

Lac-Z = details: study 2, 100 nM, N/P=2, 0.1% pluronic F127
Description: The LacZ assay was performed three days post-transfection. Cells were rinsed with phosphate buffers saline (PBS) after removal of cell media. The PBS was aspirated and the cells were lysed by the addition of 50 μl M-PER™ to each well and incubating the cells for 15 minutes while gently shaking. Following cell lysis, 10 μl of cell lysate was removed from each well to perform a total protein assay (micro BCA kit, Pierce). In order to measure LacZ activity, 30 μl of cell lysate was transferred to a new plate and 30 μl of ALL-IN-ONE™ beta-galactosidase (β-gal) was added to each well of the new plate. The new plate was covered to avoid light exposure and incubated for 30 minutes at 37° C. Following the 30 minute incubation, the absorbance was read at 405 nm with a μQuant plate reader (Bio-Trek Instrument) to measure LacZ activity.
For study 1 and 2, 7,000-10,000 9L/LacZ cells (passage 5-25) were plated in cell culture media in each well of a 96-well plate and grown overnight. […]
For study 1 and 2, a Micro BCA assay (Pierce Chemical Company, Rockford, Ill.) was performed in order to measure total protein concentration, as follows: 9L/LacZ cells were washed 1× with phosphate buffered saline (PBS). […] The plates were covered, incubated at 37° C. for 2 hours and then the absorbance measured at 562 nm was recorded. […]

Row | Substance | Uptake (9L/LacZ cells [1]) | Bmax (Scatchard Analysis) (G1498 siRNA) | Kd (Scatchard Analysis) (G1498 siRNA) | Max Bound siRNA (G1498 siRNA) | Particle size [2] | further results
1 | NH2-VRLPPPVRLPPPVRLPPP-amide (H-VRLPPPVRLPPPVRLPPP-NH2) [PN0593] | very low |  |  |  |  | 
2 | KKKKKKKKKKKKKKKKKK [PN0858-1, Ac-(Lys)18-amide] |  | 0.828 μMbound/μMfree | 0.348 µM⁻¹ | 66% mole % |  | 
3 | PEG10k-Mal-(Lys)30-amide [PN0907-2] |  |  |  | 58% mole % |  | 
4 | Cys-Trp-(Lys)10-Cys (CWKKKKKKKKKKC) [NT-21] | good uptake |  |  |  | about 55.7 nm | Reduction of peptide polymer by GSH with siRNA release [3]: exception
5 | PEG2k-Mal-(Lys)10-amide ({PEG2k-Mal}-KKKKKKKKKK-NH2) [PN0933-2] |  | 0.241 μMbound/μMfree | 0.326 µM⁻¹ | 39% mole % |  | 
6 | Cys-Trp-His-(Lys)4-His-(Lys)4-His-Cys (CWHKKKKHKKKKHC) [NT-25] |  |  |  |  | about 64.6 nm | 
7 | NH2-PLKPLKPLKPLKPLKPLK-amide (H-PLKPLKPLKPLKPLKPLK-NH2) [PN0594] | very low |  |  |  |  | 
8 | KKKKKKKKKKKKKKKKKKKK [PN0924-1, NH2-(Lys)20-amide] |  | 0.883 μMbound/μMfree | 0.426 µM⁻¹ | 71% mole % |  | 
9 | Cys-Trp-(Lys)4-Cys-(Lys)4-Cys (CWKKKKCKKKKC) [NT-22] |  |  |  |  | about 90.8 nm | 
10 | PEG2k-Mal-(Lys)25-amide [PN0925-2] |  | 2.077 μMbound/μMfree | 0.150 µM⁻¹ | 59% mole % |  | 
11 | Cys-Trp-(Lys)4-His-(Lys)4-Cys (CWKKKKHKKKKC) [NT-23] |  |  |  |  | about 65.7 nm | 
12 | PEG2k-Mal-(Lys)15-amide ({PEG2k-Mal}-KKKKKKKKKKKKKKK-NH2) [PN0930-2] |  | 0.560 μMbound/μMfree | 0.250 µM⁻¹ | 48% mole % |  | 
13 | RRRRRRRRR [PN0861-2, Ac-(Arg)9-amide] |  | 0.198 μMbound/μMfree | 0.771 µM⁻¹ | 68% mole % |  | Relative affinity of binding to siRNA (G1498 siRNA): greatest affinity
14 | PEG10k-Mal-(Lys)15-amide ({PEG10k-Mal}-KKKKKKKKKKKKKKK-NH2) [PN0931-2] |  | 0.992 μMbound/μMfree | 0.130 µM⁻¹ | 47% mole % |  | 
15 | Cys-Trp-His-(Lys)4-His-(Lys)4-Cys (CWHKKKKHKKKKC) [NT-24] |  |  |  |  | about 82.2 nm | Toxicity (total protein expression) (9L/LacZ cells [4]): no apparent toxicity
16 | RRRRRRRRRRRRRRRRRR [PN0859-2, Ac-(Arg)18-amide] |  | 0.495 μMbound/μMfree | 0.929 µM⁻¹ | 64% mole % |  | Relative affinity of binding to siRNA (G1498 siRNA): greatest affinity
17 | KKKKKKKKK [PN0860-2, Ac-(Lys)9-amide] |  | 0.379 μMbound/μMfree | 0.204 µM⁻¹ | 43% mole % |  | 
18 | Cys-Trp-(Lys)8-Cys (CWKKKKKKKKC) [NT-20] | good uptake |  |  |  | about 67.6 nm | 
19 | Cys-Trp-(Lys)6-Cys (CWKKKKKKC) [NT-19] | good uptake |  |  |  | about 78.7 nm | Toxicity (total protein expression) (9L/LacZ cells [4]): no apparent toxicity; Knockdown of gene expression (Lac-Z): about 27%
20 | Cys-Trp-(Lys)4-Cys (CWKKKKC) [NT-18] | good uptake |  |  |  | about 105 nm | Toxicity (total protein expression) (9L/LacZ cells [4]): no apparent toxicity; Knockdown of gene expression (Lac-Z): about 20%
